Measurements from patent US10533228B2, “3.beta-hydroxysteroid dehydrogenase in steroid dependent disease” (THE CLEVELAND CLINIC FOUNDATION, priority 2013, dated 2020).

Key:
[1] = test system: PSA and TMPRSS2 expression; experiment: AR-regulated gene expression by qPCR in LNCaP; type: cell-based, human; details: qPCR normalized to RPLP0 and vehicle
Description: (§1) Gene expression. To accurately quantitate each gene transcript, qPCR was performed as previously described. Chang et al., 2011. Briefly, the iTaq SYBR Green Supermix with ROX kit (Bio-Rad, Hercules, Calif.) was applied for the thermocycling reaction in an ABI-7500 Real-Time PCR machine (Applied Biosystems, Foster City, Calif.). Total RNA (1 μg) collected by RNeasy kit (QIAGEN) was used in a RT reaction with the iScript cDNA synthesis kit (Bio-Rad). The qPCR analysis was carried out in triplicate with the following primer sets: HSD3B1 (Forward: 5′-[…]-3′ (SEQ ID NO: 11); Reverse: 5′-[…]-3′ (SEQ ID NO: 12)), PSA (Forward: 5′-[…]-3′ (SEQ ID NO: 13); Reverse: 5′-[…]-3′ (SEQ ID NO: 14)), TMPRSS2 (Forward: 5′-[…]-3′ (SEQ ID NO: 15); Reverse: 5′-[…]-3′ (SEQ ID NO: 16)), the housekeeping gene large ribosomal protein P0 (RPLP0) (Forward: 5′-CGAGGGCACCTGGAAAAC-3′ (SEQ ID NO: 17); Reverse: 5′-CACATTCCCCCGGATATGA-3′ (SEQ ID NO: 18)) and GAPDH (Forward: 5′-[…]-3′ (SEQ ID NO: 19); Reverse: 5′-[…]-3′ (SEQ ID NO: 20)). Each mRNA transcript was quantitated by normalizing the sample values to RPLP0 or GAPDH and to non-silencing control cells (for knockdown) or to vehicle treated cells (for steroid treated cells). All gene expression studies were repeated in independent experiments.

[2] = biological target: T1, 3βHSD1(367N) (Homo sapiens, UniProt P14060, T367N); experiment: Enzyme kinetics of DHEA metabolism, recombinant enzyme in yeast microsomes; type: biochemical; details: Michaelis-Menten plot
T1 construct: made in house; host or cells: Saccharomyces cerevisiae W303B (microsomes)
T1 sequence (P14060 1-373 T367N): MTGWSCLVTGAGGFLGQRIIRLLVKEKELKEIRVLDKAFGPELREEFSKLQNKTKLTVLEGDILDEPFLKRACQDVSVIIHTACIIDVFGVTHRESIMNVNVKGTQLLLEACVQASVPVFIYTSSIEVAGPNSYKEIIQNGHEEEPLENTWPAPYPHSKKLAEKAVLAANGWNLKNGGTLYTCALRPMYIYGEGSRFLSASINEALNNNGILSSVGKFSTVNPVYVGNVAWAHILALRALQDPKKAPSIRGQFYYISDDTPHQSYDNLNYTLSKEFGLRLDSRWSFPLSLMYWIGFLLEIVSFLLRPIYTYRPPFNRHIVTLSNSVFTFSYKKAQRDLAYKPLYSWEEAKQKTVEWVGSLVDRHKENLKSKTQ
Description: (§2) Recombinant human 3βHSD1 was expressed in S cerevisciae strain W303B using yeast vector V10-3βHSD1 for wild-type and 367T proteins, and microsomes were prepared as described. Li et al., 2012. Incubations containing [^3H]-DHEA (0.5-40 μM, 100,000 cpm) and 25 μg microsomal protein in 0.25 ml of 50 mM potassium phosphate (pH 7.4) were pre-incubated at 37° C. for 1 min before initiating the reaction with NAD (0.1 mM). After 20 min at 37° C., the steroids were extracted with 1 ml dichloromethane, concentrated, and resolved on an Agilent 1260 HPLC equipped with a Kinetex 2.1×100 mm, 2.6 μm C18 reverse-phase column (Phenomenex, Torrance, Calif.) using methanol-water gradients at 0.4 ml/min. The column effluent was analyzed with a β-RAM4 (LabLogic) in-line scintillation counter and Bio-SafeII cocktail (Research Products International). Means of triplicate determinations were plotted as v versus [S], and kinetic constants Km and Vmax were obtained by fitting the data to the Michaelis-Menten equation using Origin version 7.5.

[3] = biological target: T2, 3βHSD1(367T) (Homo sapiens, UniProt P14060); experiment: as above; type: biochemical; details: Michaelis-Menten plot
T2 construct: made in house; host or cells: Saccharomyces cerevisiae W303B (microsomes)
T2 sequence (P14060 2-373): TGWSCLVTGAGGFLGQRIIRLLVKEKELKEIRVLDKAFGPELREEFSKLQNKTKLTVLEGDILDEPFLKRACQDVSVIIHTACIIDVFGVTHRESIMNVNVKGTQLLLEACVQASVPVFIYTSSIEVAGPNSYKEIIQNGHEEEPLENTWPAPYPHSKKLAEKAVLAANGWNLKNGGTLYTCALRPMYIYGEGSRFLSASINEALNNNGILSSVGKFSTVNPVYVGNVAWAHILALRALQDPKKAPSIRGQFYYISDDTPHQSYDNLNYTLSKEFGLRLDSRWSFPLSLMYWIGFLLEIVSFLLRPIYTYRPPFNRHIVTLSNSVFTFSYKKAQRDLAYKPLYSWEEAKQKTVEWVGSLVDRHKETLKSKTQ
Description: as §2

[4] = test system: LAPC4 cells; experiment: Steroid metabolism (flux from [3H]-DHEA to AD), HPLC; type: cell-based, human; details: LAPC4, 100 nM, after 48 hours
Description: (§3) Steroid metabolism experiments were performed 12 hours after seeding cells by treatment with 1 mL serum-free medium containing [^3H]-labeled DHEA (100 nM, 300,000-600,000 cpm; PerkinElmer). Aliquots of medium were collected for up to 48 hours, treated with β-glucuronidase (1000 units; Sigma-Aldrich) at 65° C. for 4 hours. Deconjugated steroids were extracted, evaporated under nitrogen stream, dissolved in 50% methanol, injected on a Breeze 1525 system equipped with model 717 plus autoinjector (Waters Corp.) and steroid metabolites were separated on a Luna 150×3 mm, […] C18 reverse-phase column (Phenomenex). The column effluent was mixed with Liquiscint scintillation cocktail (National Diagnostics) and analyzed by a β-RAM model 3 in-line radioactivity detector (IN/US Systems). Steroid metabolism experiments with transient enzyme expression were performed with pCMV5-HSD3B1 (367N and 367T) constructs 24 hours after transfection and 12 hours after treatment with 25 μM cycloheximide (CHX). […]
(§4) Cells (300,000-400,000 cells per well) were plated in 12-well plates coated with poly-L-ornithine. […] The column effluent was mixed with Liquiscint scintillation cocktail (National Diagnostics, Atlanta, Ga.) and analyzed by a β-RAM model 3 in-line radioactivity detector (LabLogic, Brandon, Fla.). […]

[5] = test system: LNCaP cells; experiment: as above; type: cell-based, human; details: 100 nM, after 48 hours
Description: as §3, §4

[6] = test system: PSA and TMPRSS2 expression; experiment: AR-regulated gene expression by qPCR in LAPC4; type: cell-based, human; details: LAPC4, qPCR normalized to RPLP0 and vehicle
Description: as §1

[7] = test system: 3βHSD; details: cited from earlier work

SMILES | PSA and TMPRSS2 expression [1] | Km [2] | Km [3] | [3H]-DHEA metabolized by 3βHSD enzymatic activity to AD [4] | [3H]-DHEA metabolized by 3βHSD enzymatic activity to AD [5] | PSA and TMPRSS2 expression [6] | inhibition of 3βHSD [7]
C[C@]12CC[C@H](O)CC1=CC[C@@H]1[C@@H]2CC[C@]2(C)C(=O)CC[C@@H]12 [DHEA, dehydroepiandrosterone] | induces PSA and TMPRSS2 expression in a concentration-dependent manner | 32 µM | 7 µM | approximately 10% | > 90% | absence of DHEA concentration-dependent increases in AR-regulated PSA and TMPRSS2 | 
CC(=O)O[C@H]1CC[C@@]2(C)C(=CC[C@@H]3[C@@H]2CC[C@]2(C)C(c4cccnc4)=CC[C@@H]32)C1 [abiraterone, abiraterone acetate] |  |  |  |  |  |  | weakly inhibits
